Measured values reported in US6905841B2, “Enzymatic substrates for detecting Pseudomonas aeruginas” (Biomerieux S.A., priority 1999, dated 2005).
Like-named read-outs stand apart in the source and are kept apart here.

What was measured:
[1] = tested on: β-alanine aminopeptidase; conditions: Enterobacter intermedius; 1 strain tested; read after 22 to 24 hours
[2] = tested on: β-alanine aminopeptidase; conditions: Enterococcus faecalis; 2 strains tested; read after 22 to 24 hours
[3] = tested on: β-alanine aminopeptidase; conditions: Escherichia coli; 2 strains tested; read after 22 to 24 hours
[4] = tested on: β-alanine aminopeptidase; type: cell-based; conditions: Ochrobactrum anthropi; 1 strain tested; read after 22 to 24 hours
[5] = tested on: β-alanine aminopeptidase; conditions: Enterococcus faecium; 2 strains tested; read after 22 to 24 hours
[6] = tested on: β-alanine aminopeptidase; conditions: Chryseobacterium meningosepticum; 2 strains tested; read after 22 to 24 hours
[7] = tested on: β-alanine aminopeptidase; conditions: Citrobacter freundii; 2 strains tested; read after 22 to 24 hours
[8] = tested on: β-alanine aminopeptidase; conditions: Enterobacter aerogenes; 2 strains tested; read after 22 to 24 hours
[9] = tested on: β-alanine aminopeptidase; experiment: APIZYM-type test strips with β-alanyl-β-naphthylamide; type: cell-based; conditions: Salmonella spp.; five strains
[10] = tested on: β-alanine aminopeptidase; experiment: as above; type: cell-based; conditions: Chryseobacterium meningosepticum; five strains
[11] = tested on: β-alanine aminopeptidase; experiment: as above; type: cell-based; conditions: Moraxella paraphenylpyruvica; 3 strains
[12] = tested on: β-alanine aminopeptidase; experiment: as above; type: cell-based; conditions: Myroïdes spp.; five strains
[13] = tested on: β-alanine aminopeptidase; experiment: as above; type: cell-based; conditions: Proteus vulgaris; five strains
[14] = tested on: β-alanine aminopeptidase; experiment: as above; type: cell-based; conditions: Salmonella typhi; five strains
[15] = tested on: β-alanine aminopeptidase; experiment: as above; type: cell-based; conditions: Klebsiella ozaenae; five strains
[16] = tested on: β-alanine aminopeptidase; experiment: as above; type: cell-based; conditions: Shigella sonnei; five strains
[17] = tested on: β-alanine aminopeptidase; experiment: as above; type: cell-based; conditions: CDC IV C2; five strains
[18] = tested on: β-alanine aminopeptidase; experiment: as above; type: cell-based; conditions: Achroniobacter xylosoxidans spp. denitrificans; five strains
[19] = tested on: β-alanine aminopeptidase; experiment: as above; type: cell-based; conditions: Vibrio parahaemolyticus; 4 strains
[20] = tested on: β-alanine aminopeptidase; experiment: as above; type: cell-based; conditions: Serratia marcescens; five strains
[21] = tested on: β-alanine aminopeptidase; experiment: as above; type: cell-based; conditions: Yersinia enterocolitica; five strains
[22] = tested on: β-alanine aminopeptidase; experiment: as above; type: cell-based; conditions: Ralstonia picketti; five strains
[23] = tested on: β-alanine aminopeptidase; experiment: as above; type: cell-based; conditions: Escherichia coli; five strains
[24] = tested on: β-alanine aminopeptidase; experiment: as above; type: cell-based; conditions: Providencia alcalifaciens; five strains
[25] = tested on: β-alanine aminopeptidase; experiment: as above; type: cell-based; conditions: Pseudomonas putida; five strains
[26] = tested on: β-alanine aminopeptidase; experiment: as above; type: cell-based; conditions: Bordetella bronchiseptica; five strains
[27] = tested on: β-alanine aminopeptidase; experiment: as above; type: cell-based; conditions: Proteus rettgeri; five strains
[28] = tested on: β-alanine aminopeptidase; experiment: as above; type: cell-based; conditions: Pseudomonas luteola; five strains
[29] = tested on: β-alanine aminopeptidase; experiment: as above; type: cell-based; conditions: Klebsiella pneumoniae, spp. oxytoca; five strains
[30] = tested on: β-alanine aminopeptidase; experiment: as above; type: cell-based; conditions: Moraxella non liquefaciens; 13 strains
[31] = tested on: β-alanine aminopeptidase; experiment: as above; type: cell-based; conditions: Moraxella bovis; 4 strains
[32] = tested on: β-alanine aminopeptidase; experiment: as above; type: cell-based; conditions: Ochrobactrum anthropi; five strains
[33] = tested on: β-alanine aminopeptidase; experiment: as above; type: cell-based; conditions: proches de Pasteurella; 4 strains
[34] = tested on: β-alanine aminopeptidase; experiment: as above; type: cell-based; conditions: Sphingobacterium multivorum; five strains
[35] = tested on: β-alanine aminopeptidase; experiment: as above; type: cell-based; conditions: Pseudomonas fluorescens; five strains
[36] = tested on: β-alanine aminopeptidase; experiment: as above; type: cell-based; conditions: Actinobacillus ureae; 1 strain
[37] = tested on: β-alanine aminopeptidase; experiment: as above; type: cell-based; conditions: Hafnia alvei; five strains
[38] = tested on: β-alanine aminopeptidase; experiment: as above; type: cell-based; conditions: Brevundimonas vesicularis; five strains
[39] = tested on: β-alanine aminopeptidase; type: cell-based; conditions: Yersinia pseudotuberculosis; five strains
[40] = tested on: β-alanine aminopeptidase; experiment: APIZYM-type test strips with β-alanyl-β-naphthylamide; type: cell-based; conditions: Shewanella putrefaciens; five strains
[41] = tested on: β-alanine aminopeptidase; experiment: as above; type: cell-based; conditions: Comamonas acidovorans; five strains

NCCC(=O)c1c(N)cc(Cl)c(O)c1Cl
Number of negative results [1]: 1 | Number positive results [1]: 0 | Number of negative results [2]: 2 | Number positive results [2]: 0 | Number of negative results [3]: 2 | Number positive results [3]: 0 | Number of negative results [4]: 0 | Number positive results [4]: 1 | Number of negative results [5]: 2 | Number positive results [5]: 0 | Number of negative results [6]: 2 | Number positive results [6]: 0 | Number of negative results [7]: 2 | Number positive results [7]: 0 | Number of negative results [8]: 2 | Number positive results [8]: 0

β-alanyl-β-naphthylamide
β-alanine aminopeptidase activity, result [9]: negative | β-alanine aminopeptidase activity, result [10]: negative | β-alanine aminopeptidase activity, result [11]: negative | β-alanine aminopeptidase activity, result [12]: negative | β-alanine aminopeptidase activity, result [13]: negative | β-alanine aminopeptidase activity, result [14]: negative | β-alanine aminopeptidase activity, result [15]: negative | β-alanine aminopeptidase activity, result [16]: negative | β-alanine aminopeptidase activity, result [17]: negative | β-alanine aminopeptidase activity, result [18]: negative | β-alanine aminopeptidase activity, result [19]: negative | β-alanine aminopeptidase activity, result [20]: negative | β-alanine aminopeptidase activity, result [21]: negative | β-alanine aminopeptidase activity, result [22]: negative | β-alanine aminopeptidase activity, result [23]: negative | β-alanine aminopeptidase activity, result [24]: negative | β-alanine aminopeptidase activity, result [25]: negative | β-alanine aminopeptidase activity, result [26]: negative | β-alanine aminopeptidase activity, result [27]: negative | β-alanine aminopeptidase activity, result [28]: negative | β-alanine aminopeptidase activity, result [29]: negative | β-alanine aminopeptidase activity, result [30]: negative | β-alanine aminopeptidase activity, result [31]: negative | β-alanine aminopeptidase activity, result [32]: positive | β-alanine aminopeptidase activity, result [33]: negative | β-alanine aminopeptidase activity, result [34]: negative | β-alanine aminopeptidase activity, result [35]: positive | β-alanine aminopeptidase activity, result [36]: negative | β-alanine aminopeptidase activity, result [37]: negative | β-alanine aminopeptidase activity, result [38]: negative | β-alanine aminopeptidase activity, result [39]: negative | β-alanine aminopeptidase activity, result [40]: negative | β-alanine aminopeptidase activity, result [41]: negative
